The target in series [1] is T1, Protein deacetylase HDAC6 (Homo sapiens, UniProt Q9UBN7).
T1 sequence (Q9UBN7 whole entry): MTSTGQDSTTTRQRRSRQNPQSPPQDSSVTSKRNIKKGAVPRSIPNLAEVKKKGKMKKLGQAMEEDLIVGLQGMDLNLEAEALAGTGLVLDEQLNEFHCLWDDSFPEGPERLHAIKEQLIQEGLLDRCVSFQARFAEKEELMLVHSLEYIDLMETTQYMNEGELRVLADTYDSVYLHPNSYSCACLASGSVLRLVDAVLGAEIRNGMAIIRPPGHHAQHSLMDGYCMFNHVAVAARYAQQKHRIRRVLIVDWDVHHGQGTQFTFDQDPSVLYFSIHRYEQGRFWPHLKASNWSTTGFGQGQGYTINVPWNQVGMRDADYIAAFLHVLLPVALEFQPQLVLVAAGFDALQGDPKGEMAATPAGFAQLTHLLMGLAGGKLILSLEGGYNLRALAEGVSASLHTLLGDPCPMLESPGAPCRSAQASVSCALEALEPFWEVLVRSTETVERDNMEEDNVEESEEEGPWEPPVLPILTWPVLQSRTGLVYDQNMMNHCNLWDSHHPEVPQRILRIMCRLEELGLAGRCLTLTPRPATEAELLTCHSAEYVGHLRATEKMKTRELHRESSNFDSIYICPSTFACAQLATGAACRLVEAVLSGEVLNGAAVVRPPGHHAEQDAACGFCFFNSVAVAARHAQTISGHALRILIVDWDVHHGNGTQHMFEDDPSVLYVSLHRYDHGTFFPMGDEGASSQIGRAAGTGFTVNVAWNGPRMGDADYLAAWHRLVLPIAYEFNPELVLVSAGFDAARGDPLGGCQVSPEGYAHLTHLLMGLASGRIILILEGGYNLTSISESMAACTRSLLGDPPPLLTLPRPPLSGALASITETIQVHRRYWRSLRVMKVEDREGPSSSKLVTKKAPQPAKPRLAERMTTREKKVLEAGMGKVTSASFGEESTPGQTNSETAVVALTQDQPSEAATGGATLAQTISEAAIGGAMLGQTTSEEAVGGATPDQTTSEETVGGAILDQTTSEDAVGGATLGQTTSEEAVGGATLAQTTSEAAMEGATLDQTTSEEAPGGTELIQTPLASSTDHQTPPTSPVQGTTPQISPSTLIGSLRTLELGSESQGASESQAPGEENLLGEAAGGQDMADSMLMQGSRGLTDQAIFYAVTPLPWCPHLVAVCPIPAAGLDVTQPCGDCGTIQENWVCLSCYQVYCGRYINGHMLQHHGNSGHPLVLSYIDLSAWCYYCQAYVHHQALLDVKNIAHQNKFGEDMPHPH
Nature of the series: Inhibition of HDAC6 (unknown origin).

The subject of the next series is A549. As to the kind of experiment: Antiproliferative activity against human A549 cells.
In series [2] the test system is HepG2. Nature of the series: Antiproliferative activity against human HepG2 cells. The series is classed as functional, cell-based.
Another series addresses Histone deacetylase 1 (Homo sapiens, UniProt Q13547). As to the kind of experiment: Inhibition of HDAC1 (unknown origin).
The test system of a further series is HT-29. As to the kind of experiment: Antiproliferative activity against human HT-29 cells. The class given is functional, cell-based.
Series [3] in a line: Cytotoxicity against human L02 cells. The class given is toxicity, cell-based.
Series [4] in a line: Cytotoxicity against human NCM460 cells. The class given is toxicity, cell-based.
The subject of series [5] is HCT-116. Nature of the series: cells. To be noted: Homo sapiens.
The subject of series [6] is K562. As to the kind of experiment: Antiproliferative activity against human K562 cells by MTT assay. The series is classed as functional, cell-based. (In general: Formazan colour is commonly taken as a measure of viable cells.)
In series [7] the test system is U-937. Nature of the series: Antiproliferative activity against human U-937 cells by MTT assay. The series is classed as functional, cell-based.
The subject of series [8] is HCT-116. As to the kind of experiment: Antiproliferative activity against human HCT-116 cells by MTT assay. The class given is functional, cell-based.
Series [9] addresses DNA (cytosine-5)-methyltransferase 1 (Homo sapiens, UniProt P26358). Nature of the series: Inhibition of DNMT1 (unknown origin).
Series [10] can be described thus: Metabolic stability in rat liver microsomes assessed as half life. The class given is ADME, Microsome. For orientation: Liver microsomes are a subcellular fraction often used to study metabolism.
Another series addresses Cytochrome P450 2D6 (Homo sapiens, UniProt P10635). Nature of the series: Inhibition of CYP2D6 in human liver microsomes. The series is classed as ADME, Microsome.
The test system of a further series is A-431. Nature of the series: Antiproliferative activity against human A-431 cells assessed as inhibition of cell growth by MTT assay. The series is classed as functional, cell-based.
For the next series, the system named is MCF7. As to the kind of experiment: Antiproliferative activity against human MCF7 cells assessed as inhibition of cell growth by MTT assay. The series is classed as functional, cell-based.
Series [11] concerns HCT-116. As to the kind of experiment: Antiproliferative activity against human HCT-116 cells assessed as inhibition of cell growth by MTT assay. The series is classed as functional, cell-based.
Series [12] deals with E3 ubiquitin-protein ligase Mdm2 (Homo sapiens) (UniProt Q00987). Nature of the series: Inhibition of MDM2 (unknown origin) using biotinylated P53 peptide as substrate at 1 uM by HTRF assay relative to control. A general note: In TR-FRET formats the signal depends on donor and acceptor labels being close together.
Sequence of E3 ubiquitin-protein ligase Mdm2 (Homo sapiens) (Q00987 whole entry, looked up): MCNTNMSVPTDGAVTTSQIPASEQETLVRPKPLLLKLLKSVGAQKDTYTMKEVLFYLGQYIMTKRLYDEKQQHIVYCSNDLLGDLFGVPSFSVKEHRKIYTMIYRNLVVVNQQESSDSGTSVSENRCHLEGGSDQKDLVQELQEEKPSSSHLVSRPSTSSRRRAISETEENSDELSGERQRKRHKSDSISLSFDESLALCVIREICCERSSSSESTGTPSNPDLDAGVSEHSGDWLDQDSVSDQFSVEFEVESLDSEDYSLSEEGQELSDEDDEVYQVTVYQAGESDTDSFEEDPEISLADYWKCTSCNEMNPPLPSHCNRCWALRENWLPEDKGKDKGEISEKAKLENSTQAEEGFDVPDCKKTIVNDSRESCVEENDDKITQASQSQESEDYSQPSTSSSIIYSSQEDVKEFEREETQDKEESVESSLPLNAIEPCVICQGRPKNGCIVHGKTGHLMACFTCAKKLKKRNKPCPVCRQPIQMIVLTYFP
Another series relates to U-266. Nature of the series: cells. The series is classed as functional, cell-based. The settings on record: Homo sapiens, U-266, 48 h.
The subject of series [13] is U-937. Nature of the series: cells. The series is classed as functional, cell-based. The settings on record: Homo sapiens, U-937, 48 h.
Series [14] has as its system HepG2. Nature of the series: cells. The series is classed as functional, cell-based. The settings on record: Homo sapiens, HepG2, 48 h.
A further series has as its system Calu-3. As to the kind of experiment: cells. The class given is functional, cell-based. The settings on record: Homo sapiens, Calu-3, 48 h.
The nature of a further series: cells. The series is classed as functional, cell-based. The settings on record: Homo sapiens, SPCA1, 48 h.
The test system of another series is MDA-MB-231. Nature of the series: cells. The series is classed as functional, cell-based. To be noted: Homo sapiens, MDA-MB-231, 48 h.
In the next series the test system is MDA-MB-468. Nature of the series: cells. The series is classed as functional, cell-based. The settings on record: Homo sapiens, MDA-MB-468, 48 h.
Another series concerns SK-OV-3. Nature of the series: cells. The class given is functional, cell-based. To be noted: Homo sapiens, SK-OV-3, 48 h.
Series [15] has as its system K562. Nature of the series: cells. The series is classed as functional, cell-based. To be noted: Homo sapiens, K562, 48 h.
For another series, the system named is PANC-1. As to the kind of experiment: cells. To be noted: Homo sapiens, PANC-1, 48 h. The class given is functional, cell-based.
A further series concerns the target Histone deacetylase 3 (Homo sapiens, UniProt O15379). Nature of the series: Inhibition of recombinant HDAC3 (unknown origin) using Boc-Lys (acetyl)-AMC as substrate preincubated for 1 hr followed by substrate addition and measured after 2 hrs by fluorescence based analysis.
Series [16] concerns HepG2. As to the kind of experiment: animal or person. The class given is functional, Homo sapiens. The settings on record: Mus musculus, HepG2, po, 384 h, route ig, time 16 day.

Sequence of Histone deacetylase 1 (Q13547 whole entry): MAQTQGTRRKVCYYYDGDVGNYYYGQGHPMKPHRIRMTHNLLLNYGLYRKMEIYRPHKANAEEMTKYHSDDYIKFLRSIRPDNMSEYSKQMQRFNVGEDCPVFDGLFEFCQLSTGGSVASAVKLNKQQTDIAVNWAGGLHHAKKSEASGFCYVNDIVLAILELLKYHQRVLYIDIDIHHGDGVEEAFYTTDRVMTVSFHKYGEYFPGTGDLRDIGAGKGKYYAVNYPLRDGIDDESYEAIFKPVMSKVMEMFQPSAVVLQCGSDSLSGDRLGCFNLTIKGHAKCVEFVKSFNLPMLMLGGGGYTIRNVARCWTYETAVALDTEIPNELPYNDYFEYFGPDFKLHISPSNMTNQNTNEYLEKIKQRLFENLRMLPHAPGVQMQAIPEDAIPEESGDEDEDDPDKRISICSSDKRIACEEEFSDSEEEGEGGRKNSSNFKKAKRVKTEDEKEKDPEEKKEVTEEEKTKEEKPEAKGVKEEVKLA
Sequence of Histone deacetylase 3 (O15379 whole entry): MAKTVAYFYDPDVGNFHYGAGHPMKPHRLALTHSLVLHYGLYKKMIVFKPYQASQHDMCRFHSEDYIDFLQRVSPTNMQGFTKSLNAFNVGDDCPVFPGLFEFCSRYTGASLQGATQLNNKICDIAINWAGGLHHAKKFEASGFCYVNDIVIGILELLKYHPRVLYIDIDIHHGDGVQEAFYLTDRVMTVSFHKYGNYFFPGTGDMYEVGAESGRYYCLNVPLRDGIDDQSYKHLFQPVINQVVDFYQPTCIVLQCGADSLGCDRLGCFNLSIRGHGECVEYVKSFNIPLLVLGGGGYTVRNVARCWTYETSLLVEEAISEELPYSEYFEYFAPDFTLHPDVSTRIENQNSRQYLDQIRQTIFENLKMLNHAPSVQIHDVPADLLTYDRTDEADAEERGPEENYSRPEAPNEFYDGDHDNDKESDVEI
Sequence of DNA (cytosine-5)-methyltransferase 1 (P26358 whole entry): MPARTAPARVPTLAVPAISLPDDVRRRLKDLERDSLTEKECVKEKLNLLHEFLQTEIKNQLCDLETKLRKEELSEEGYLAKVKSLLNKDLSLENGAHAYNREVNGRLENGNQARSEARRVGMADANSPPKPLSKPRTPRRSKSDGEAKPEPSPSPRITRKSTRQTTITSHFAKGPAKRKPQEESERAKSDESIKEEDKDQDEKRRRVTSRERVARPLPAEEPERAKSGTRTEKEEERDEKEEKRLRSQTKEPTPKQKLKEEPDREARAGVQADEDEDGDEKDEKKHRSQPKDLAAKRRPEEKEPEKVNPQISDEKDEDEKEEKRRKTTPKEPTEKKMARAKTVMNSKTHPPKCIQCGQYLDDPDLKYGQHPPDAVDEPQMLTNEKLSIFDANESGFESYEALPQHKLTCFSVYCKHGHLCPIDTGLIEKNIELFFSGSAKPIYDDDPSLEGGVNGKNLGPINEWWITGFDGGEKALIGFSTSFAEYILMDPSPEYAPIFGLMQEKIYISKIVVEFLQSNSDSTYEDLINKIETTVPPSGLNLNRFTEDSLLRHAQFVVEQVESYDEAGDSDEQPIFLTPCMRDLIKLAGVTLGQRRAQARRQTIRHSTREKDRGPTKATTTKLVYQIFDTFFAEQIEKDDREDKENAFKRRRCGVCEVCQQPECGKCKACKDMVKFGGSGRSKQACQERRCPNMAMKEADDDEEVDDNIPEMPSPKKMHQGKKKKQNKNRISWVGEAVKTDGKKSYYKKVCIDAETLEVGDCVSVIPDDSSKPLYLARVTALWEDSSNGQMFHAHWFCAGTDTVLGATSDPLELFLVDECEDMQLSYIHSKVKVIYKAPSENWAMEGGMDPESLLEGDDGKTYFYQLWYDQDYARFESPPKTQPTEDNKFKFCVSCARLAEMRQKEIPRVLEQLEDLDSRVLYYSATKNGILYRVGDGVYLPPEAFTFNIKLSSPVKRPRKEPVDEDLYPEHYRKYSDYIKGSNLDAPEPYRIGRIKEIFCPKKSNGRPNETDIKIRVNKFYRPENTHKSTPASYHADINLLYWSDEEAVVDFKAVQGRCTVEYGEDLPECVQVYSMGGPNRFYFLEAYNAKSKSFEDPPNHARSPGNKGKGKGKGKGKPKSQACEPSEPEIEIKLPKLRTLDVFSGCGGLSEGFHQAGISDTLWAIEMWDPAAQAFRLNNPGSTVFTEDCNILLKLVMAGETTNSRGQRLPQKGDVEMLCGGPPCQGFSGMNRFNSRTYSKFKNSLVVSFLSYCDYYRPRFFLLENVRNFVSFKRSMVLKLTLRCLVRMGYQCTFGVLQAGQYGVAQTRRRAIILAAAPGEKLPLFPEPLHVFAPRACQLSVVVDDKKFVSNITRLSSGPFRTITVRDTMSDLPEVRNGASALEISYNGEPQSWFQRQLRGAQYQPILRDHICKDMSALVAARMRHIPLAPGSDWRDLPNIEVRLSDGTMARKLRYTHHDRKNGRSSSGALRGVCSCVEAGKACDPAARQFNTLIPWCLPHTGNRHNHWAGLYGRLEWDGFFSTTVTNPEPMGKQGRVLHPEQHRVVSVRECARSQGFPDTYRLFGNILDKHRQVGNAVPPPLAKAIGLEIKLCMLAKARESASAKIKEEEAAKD
Sequence of Cytochrome P450 2D6 (P10635 whole entry): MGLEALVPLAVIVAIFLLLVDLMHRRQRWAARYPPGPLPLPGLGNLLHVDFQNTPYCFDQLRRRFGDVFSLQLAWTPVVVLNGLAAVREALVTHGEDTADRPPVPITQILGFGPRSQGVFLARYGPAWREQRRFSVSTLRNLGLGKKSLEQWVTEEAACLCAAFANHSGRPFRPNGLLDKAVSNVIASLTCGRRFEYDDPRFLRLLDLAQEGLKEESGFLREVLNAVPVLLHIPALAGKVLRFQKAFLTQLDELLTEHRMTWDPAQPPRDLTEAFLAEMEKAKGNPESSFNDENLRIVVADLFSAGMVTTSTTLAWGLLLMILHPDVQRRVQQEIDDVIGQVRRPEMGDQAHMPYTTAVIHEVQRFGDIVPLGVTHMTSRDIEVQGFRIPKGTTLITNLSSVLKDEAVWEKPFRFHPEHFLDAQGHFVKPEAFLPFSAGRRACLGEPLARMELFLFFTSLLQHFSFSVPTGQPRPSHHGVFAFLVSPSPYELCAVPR

What is called IC50 is the concentration at which inhibition is half-maximal. As for `COc1ccc2c3ccnc(C)c3n(CC3CCN(c4ncc(C(=O)NO)cn4)CC3)c2c1`, the IC50 is 0.45 µM in series [1]; 1.41 µM in the series with A549; 1.41 µM with HepG2 [2]; 0.022 µM on Histone deacetylase 1; 1.41 µM in the series on HT-29; 11.3 µM in series [3]. The IC50 was 18.5 µM in series [4] and 1.41 µM with HCT-116 [5].
For orientation: half-life means the time in which the quantity being followed falls by half. Turning to `Nc1ccn(Cc2ccc(-c3cn(CCCCCCC(=O)NO)nn3)cc2)c(=O)n1`, the IC50 came to 0.00837 µM in series [1]; 0.00268 µM on Histone deacetylase 1; 7.1 µM with K562 [6]; 7.1 µM with U-937 [7]; 7.1 µM in the series with HCT-116 [8]; 6.39 µM in [9]. On Cytochrome P450 2D6, the IC50 is 8.7 µM. Besides, the half-life in [10] stood at 6.08 h.
What is called inhibition is the relative decrease from the control value, in per cent. For the compound `O=C(CCCCCCC(=O)N1CCC(C(=O)Nc2ccc([C@@H]3[C@H]4CSCN4[C@]4(C(=O)Nc5cc(Cl)ccc54)[C@H]3C(=O)c3ccccc3)cc2)CC1)NO`, the IC50 in the series on A-431, in the series with MCF7 and in the series on HCT-116 [11] was 1.37 µM each time. This compound also gave an inhibition in series [12] of 65%.
As usually defined, the inhibition in vivo is how much of the control response was suppressed. Read a low inhibition in vivo as a response near the control. `Cn1cc(CCCC(=O)Nc2ccc(C(=O)NO)cc2)c2ccccc21`: the IC50 with U-266, in the series on U-937 [13], with HepG2 [14], in the series on Calu-3, in the series “cells” and in the series with MDA-MB-231 was 0.16 µM each time. For the same compound, the IC50 in the series on MDA-MB-468 was 0.16 µM; in the series on SK-OV-3 it was 0.16 µM; with K562 [15], 0.16 µM; in the series with PANC-1, 0.16 µM; at Histone deacetylase 3, 0.0139 µM. Also, in the series with HepG2 [16], the inhibition in vivo at 50 mg/kg was determined as 33.1%.

The record behind these values is ChEMBL document CHEMBL5614367, “Hydroxamic acid hybrids: Histone deacetylase inhibitors with anticancer therapeutic potency” (Eur J Med Chem, 2023).
